# From article PMC6182381, “Population Pharmacokinetics and Exposure-Response Relationships of Naldemedine” (Pharmaceutical Research, 2018)
# Like-named read-outs stand apart in the source and are kept apart here.
# Legend:
# [1] = Population PK analysis of plasma naldemedine concentrations (NONMEM, 2-compartment model); format: in vivo, human; conditions: for AUC: human, plasma, oral
# Experimental: A population PK model was developed with pooled naldemedine concentrations from healthy subjects, patients with chronic non-cancer pain and OIC, and cancer patients with OIC as described in Table I. Blood sampling times for PK analysis in each study are shown in Supplemental Table S1. All studies were performed in accordance with the Declaration of Helsinki, the International Conference on Harmonization (ICH) E6 Guidance for Good Clinical Practice and all other applicable regulatory requirements. Study protocols were approved by the responsible institutional review boards. Written informed consent for each clinical study was obtained from all subjects.
# Background data available for subjects were summarized and used as candidate covariates: age, body weight, body mass index (BMI), albumin (ALBU), aspartate aminotransferase (AST) and alanine aminotransferase (ALT), total bilirubin (Tbil), and creatinine clearance (CLcr) at baseline as continuous data, and gender (male, female), race/ethnicity (“White” or “non-White”, “Japanese” or “non-Japanese”, “Hispanic or Latino” or “non-Hispanic or non-Latino”), health status (healthy subjects/ Patients with chronic non-cancer pain and OIC/ Cancer patients with OIC), dosing conditions (dosing in the fasted/fed state, with/without concomitant use of P-gp/CYP3A inhibitor/inducer), and formulation (“solution or suspension”, “phase 1 or 2 tablet”, “phase 3 tablet”) as categorical data. Background data at baseline were obtained from observations prior to or on the first day of dosing, or at screening if this value was not available. Categorical age (<65 years or ≥ 65 years) was also used. CLcr was calculated using the Cockcroft-Gault eq. ([12]). Data from the concomitant treatment period in the phase 1 DDI studies [1202 V9218, 1403V921D, and 1502V921E]), in which co-administrations of P-gp/CYP3A inhibitor/inducer (cyclosporine, rifampin, itraconazole, or fluconazole) with naldemedine were designed as the worst case scenario for each inhibitor/inducer (single dose of cyclosporine 600 mg, rifampin 600 mg for 17 days, itraconazole 200 mg for 7 days, fluconazole 200 mg for 7 days), were excluded from the population PK analysis because they were not clinically relevant to the OIC treatment. Food condition was assumed as fasted in phase 2b studies (1107 V9221 and 1108 V9222), in which the date/time of food intake had not been recorded. Food condition was defined as fasted in cases where naldemedine was administered more than 1 h after the food intake in phase 3 studies (1314 V9231, 1315 V9232, 1331 V9236, 1336 V9238, and 1339 V9239).
# The bioanalytical methods for determination of concentrations of naldemedine and its metabolites in human plasma were validated with the lower limit of quantification (LLOQ) being 0.01 ng/ml for naldemedine ([11]). Plasma samples were analyzed after solid phase extraction by a liquid chromatography/mass spectrometry/mass spectrometry (LC/MS/MS) method using the positive ion mode and multiple reaction monitoring. All the analytical methods were validated across the calibration range with respect to selectivity, recovery, accuracy, precision, and stability under a variety of conditions.
# The population PK analysis was performed by using the non-linear mixed effect modeling software NONMEM (version 7.3, ICON Development Solutions, US), with PREDPP library and NM-TRAN preprocessor ([13]). To support analyses by NONMEM, Perl-speaks-NONMEM (PsN) (version 4.2) and Xpose (version 4.2.1) were used ([14]). The first order conditional estimation with interaction (FOCE-I) method was used for the analysis.
# The PK profiles of naldemedine were examined using conventional compartment disposition models with first order absorption based on the PK in healthy volunteers ([11]). To determine the basic structural PK model for naldemedine, 1-, 2- and 3-compartment models with first order absorption were tested. […]
# [2] = design: method as in earlier work; conditions: oral 2 mg [14C]-labeled naldemedine; cited from earlier work
# [3] = 1314V9231_1315V9232 (Phase 3), 0.2 mg
# [4] = final model, bootstrap estimates
smiles,measurement,setting,value
CC(C)(NC(=O)C1=C(O)[C@@H]2Oc3c(O)ccc4c3[C@@]23CCN(CC2CC2)[C@H](C4)[C@]3(O)C1)c1nc(-c2ccccc2)no1 [naldemedine],"Empirical Bayesian-estimated AUCss, Max","[1]; 1107V9221 (Phase 2b), 0.1 mg",13.49 ng·h/mL
same,"Empirical Bayesian-estimated AUCss, Min","[1]; 1107V9221 (Phase 2b), 0.1 mg",7.02 ng·h/mL
same,"Empirical Bayesian-estimated AUCss, Max","[1]; 1107V9221 (Phase 2b), 0.2 mg",51.36 ng·h/mL
same,"Empirical Bayesian-estimated AUCss, Min","[1]; 1107V9221 (Phase 2b), 0.2 mg",12.66 ng·h/mL
same,"Empirical Bayesian-estimated AUCss, Max","[1]; 1107V9221 (Phase 2b), 0.4 mg",74.93 ng·h/mL
same,"Empirical Bayesian-estimated AUCss, Min","[1]; 1107V9221 (Phase 2b), 0.4 mg",25.78 ng·h/mL
same,"Empirical Bayesian-estimated AUCss, Max",[1]; [3],92.1 ng·h/mL
same,"Empirical Bayesian-estimated AUCss, Min",[1]; [3],5.669 ng·h/mL
same,"Empirical Bayesian-estimated CL/F, Mean","[1]; 1314V9231_1315V9232, Age 65 -< 75",7.63 L/h
same,"Empirical Bayesian-estimated CL/F, Mean","[1]; 1314V9231_1315V9232, Age < 65",8.89 L/h
same,"Empirical Bayesian-estimated CL/F, Mean","[1]; 1314V9231_1315V9232, Age >= 65",7.61 L/h
same,"Empirical Bayesian-estimated CL/F, Mean","[1]; 1314V9231_1315V9232, Age >= 75",7.54 L/h
same,"Empirical Bayesian-estimated CL/F, Mean","[1]; 1314V9231_1315V9232, Asian",13.1 L/h
same,"Empirical Bayesian-estimated CL/F, Mean","[1]; 1314V9231_1315V9232, Black",7.51 L/h
same,"Empirical Bayesian-estimated CL/F, Mean","[1]; 1314V9231_1315V9232, Female",8.48 L/h
same,"Empirical Bayesian-estimated CL/F, Mean","[1]; 1314V9231_1315V9232, Male",9.08 L/h
same,"Empirical Bayesian-estimated CL/F, Mean","[1]; 1314V9231_1315V9232, OIC non-Cancer",8.73 L/h
same,"Empirical Bayesian-estimated CL/F, Mean","[1]; 1314V9231_1315V9232, White",9.00 L/h
same,"Empirical Bayesian-estimated CL/F, Mean","[1]; 1314V9231_1315V9232, non-White",7.59 L/h
same,"Empirical Bayesian-estimated CL/F, Mean","[1]; 1314V9231_1315V9232, race Others",6.36 L/h
same,"Empirical Bayesian-estimated CL/F, Mean","[1]; 1331V9236 (cancer patients), Age 65 -< 75",7.15 L/h
same,"Empirical Bayesian-estimated CL/F, Mean","[1]; 1331V9236 (cancer patients), Age < 65",7.51 L/h
same,"Empirical Bayesian-estimated CL/F, Mean","[1]; 1331V9236 (cancer patients), Age >= 65",7.15 L/h
same,"Empirical Bayesian-estimated CL/F, Mean","[1]; 1331V9236 (cancer patients), Age >= 75",7.16 L/h
same,"Empirical Bayesian-estimated CL/F, Mean","[1]; 1331V9236 (cancer patients), Asian",7.34 L/h
same,"Empirical Bayesian-estimated CL/F, Mean","[1]; 1331V9236 (cancer patients), Female",6.54 L/h
same,"Empirical Bayesian-estimated CL/F, Mean","[1]; 1331V9236 (cancer patients), Male",7.85 L/h
same,"Empirical Bayesian-estimated CL/F, Mean","[1]; 1331V9236 (cancer patients), non-White",7.34 L/h
same,"Empirical Bayesian-estimated CL/F, Mean","[1]; 1331V9236, OIC Cancer",7.34 L/h
same,ALAG,[1]; base model,0.195 h
same,CL/F,[1]; base model,8.20 L/h
same,Inter-individual variability of CL/F,[1]; base model,40.5 CV%
same,Inter-individual variability of Ka,[1]; base model,168.2 CV%
same,Inter-individual variability of Q/F,[1]; base model,50.5 CV%
same,Inter-individual variability of Vc/F,[1]; base model,38.5 CV%
same,Inter-individual variability of Vp/F,[1]; base model,37.7 CV%
same,"Intra-individual variability, proportional",[1]; base model,25.6 CV%
same,Ka,[1]; base model,3.81 h⁻¹
same,Q/F,[1]; base model,5.02 L/h
same,Vc/F,[1]; base model,83.6 L
same,Vp/F,[1]; base model,43.2 L
same,AUC,"[1]; both sexes, 0.2 mg, reference population, 0.2 mg once daily, read-out: typical AUCss",22 ng·h/mL
same,decrease of population predicted AUCss vs reference population,[1]; covariates at extreme values,25%
same,increase of population predicted AUCss vs reference population,[1]; covariates at extreme values,76%
same,ALAG,[1]; final model,0.195 h
same,Inter-individual variability of CL/F,[1]; final model,37.9 CV%
same,Inter-individual variability of Ka,[1]; final model,161.2 CV%
same,Inter-individual variability of Q/F,[1]; final model,46.3 CV%
same,Inter-individual variability of Vc/F,[1]; final model,25.3 CV%
same,Inter-individual variability of Vp/F,[1]; final model,36.3 CV%
same,"Intra-individual variability, proportional",[1]; final model,25.7 CV%
same,Q/F,[1]; final model,4.77 L/h
same,"THETA (7), effect of non-Cancer OIC patients on Vc/F",[1]; final model,1.20
same,"THETA (8), effect of Cancer patients with OIC on Vc/F",[1]; final model,1.27
same,"THETA (9), effect of fed condition on Vc/F",[1]; final model,1.12
same,"THETA (11), exponent of Age/52 on Ka",[1]; final model,−1.16
same,Vp/F,[1]; final model,41.8 L
same,"ALAG, bootstrap median",[1]; [4],0.196 h
same,"CL/F, THETA (1), bootstrap median",[1]; [4],9.15 L/h
same,"Inter-individual variability of CL/F, bootstrap median",[1]; [4],38.6 CV%
same,"Inter-individual variability of Ka, bootstrap median",[1]; [4],161.0 CV%
same,"Inter-individual variability of Q/F, bootstrap median",[1]; [4],47.5 CV%
same,"Inter-individual variability of Vc/F, bootstrap median",[1]; [4],25.2 CV%
same,"Inter-individual variability of Vp/F, bootstrap median",[1]; [4],36.2 CV%
same,"Intra-individual variability, proportional, bootstrap median",[1]; [4],25.5 CV%
same,"Ka, THETA (10), bootstrap median",[1]; [4],2.90 h⁻¹
same,"Q/F, bootstrap median",[1]; [4],4.73 L/h
same,"THETA (7), non-Cancer on Vc/F, bootstrap median",[1]; [4],1.19
same,"THETA (8), Cancer on Vc/F, bootstrap median",[1]; [4],1.28
same,"THETA (9), fed condition on Vc/F, bootstrap median",[1]; [4],1.12
same,"THETA (11), Age on Ka, bootstrap median",[1]; [4],−1.23
same,"Vc/F, THETA (6), bootstrap median",[1]; [4],76.0 L
same,"Vp/F, bootstrap median",[1]; [4],41.6
same,"Ka, THETA (10)","[1]; final model, age 52",2.94 h⁻¹
same,"Vc/F, THETA (6)","[1]; final model, healthy subjects, body weight 76 kg, fasted",75.9 L
same,Vc/F,"[1]; final model, reference population: 76 kg, non-cancer OIC patients, fasted",91.1 L
same,"CL/F, THETA (1)","[1]; final model, reference: 52-year-old, male, White, CLcr 108 ml/min",9.10 L/h
same,AUC,"[1]; 0.1 mg, 1107V9221 (Phase 2b), 0.1 mg, read-out: Empirical Bayesian-estimated AUCss, Geometric Mean",10.2 ng·h/mL
same,AUC,"[1]; 0.1 mg, 1107V9221 (Phase 2b), 0.1 mg, read-out: Empirical Bayesian-estimated AUCss, Mean",10.5 ng·h/mL
same,AUC,"[1]; 0.1 mg, 1107V9221 (Phase 2b), 0.1 mg, read-out: Empirical Bayesian-estimated AUCss, Median",10.4 ng·h/mL
same,AUC,"[1]; 0.2 mg, 1107V9221 (Phase 2b), 0.2 mg, read-out: Empirical Bayesian-estimated AUCss, Geometric Mean",20.3 ng·h/mL
same,AUC,"[1]; 0.2 mg, 1107V9221 (Phase 2b), 0.2 mg, read-out: Empirical Bayesian-estimated AUCss, Mean",22.1 ng·h/mL
same,AUC,"[1]; 0.2 mg, 1107V9221 (Phase 2b), 0.2 mg, read-out: Empirical Bayesian-estimated AUCss, Median",20.2 ng·h/mL
same,AUC,"[1]; 0.2 mg, 1314V9231_1315V9232 (Phase 3), 0.2 mg, read-out: Empirical Bayesian-estimated AUCss, Geometric Mean",25.1 ng·h/mL
same,AUC,"[1]; 0.2 mg, 1314V9231_1315V9232 (Phase 3), 0.2 mg, read-out: Empirical Bayesian-estimated AUCss, Mean",27.5 ng·h/mL
same,AUC,"[1]; 0.2 mg, 1314V9231_1315V9232 (Phase 3), 0.2 mg, read-out: Empirical Bayesian-estimated AUCss, Median",24.5 ng·h/mL
same,AUC,"[1]; 0.4 mg, 1107V9221 (Phase 2b), 0.4 mg, read-out: Empirical Bayesian-estimated AUCss, Geometric Mean",41.6 ng·h/mL
same,AUC,"[1]; 0.4 mg, 1107V9221 (Phase 2b), 0.4 mg, read-out: Empirical Bayesian-estimated AUCss, Mean",43.8 ng·h/mL
same,AUC,"[1]; 0.4 mg, 1107V9221 (Phase 2b), 0.4 mg, read-out: Empirical Bayesian-estimated AUCss, Median",38.2 ng·h/mL
same,total radioactivity excreted in feces,[2],35 % of the administered dose
same,total radioactivity excreted in urine,[2],57 % of the administered dose
